From patent US7629356B2, “Substituted pyrrolo[3,4-b]pyridinamines and pharmaceutical compositions” (AstraZeneca AB, priority 2007, dated 2009)

Biological target: T1, human β-Secretase (soluble part AA1-AA460, sBACE-Fc) (Homo sapiens, UniProt P56817)
T1 construct: The soluble part of the human β-Secretase (AA1 -AA460) was cloned; Fc domain of IgG1; made in house
Assay: TR-FRET assay
Type: biochemical
Conditions: substrate (Europium)CEVNLDAEFK(Qsy7) 100 nM, pH 4.5, 15 min at RT
Experimental: The enzyme used in the IGEN Cleavage-, Fluorescent-, TR-FRET- and BiaCore assays is described as follows:
The soluble part of the human β-Secretase (AA1 -AA460) was cloned into the ASP2-Fc10-1-IRES-GFP-neoK mammalian expression vector. The gene was fused to the Fc domain of IgG1 (affinity tag) and stably cloned into HEK 293 cells. Purified sBACE-Fc is stored in Tris buffer, pH 9.2 and has a purity of 95%.
Enzyme was diluted to 6 μg/mL and the substrate (Europium)CEVNLDAEFK(Qsy7) to 200 nM in reaction buffer (NaAcetate, chaps, triton x-100, EDTA pH 4.5). Compounds were diluted to the desired concentration in dimethyl sulfoxide (final dimethyl sulfoxide concentration in assay is 5%). The assay was done in a Costar 384 well round bottom, low volume, non-binding surface plate (Corning #3676). Enzyme (9 μL) and 1 μL of compound in dimethyl sulfoxide was added to the plate, mixed and pre-incubated for 10 min. Substrate (10 μL) was added and the reaction proceeded in the dark for 15 min at RT. The reaction was stopped with the addition of 7 μL NaAcetate, pH 9. The fluorescence of the product was measured on a Victor II plate reader with an excitation wavelength of 340 nm and an emission wavelength of 615 nm. The final concentration of the enzyme was 2.7 μg/ml and the final concentration of the substrate was 100 nM (Km of 290 nM). The dimethyl sulfoxide control defined the 100% activity level and 0% activity was defined by exclusion of the enzyme (using reaction buffer instead).

T1 sequence (P56817 22-460): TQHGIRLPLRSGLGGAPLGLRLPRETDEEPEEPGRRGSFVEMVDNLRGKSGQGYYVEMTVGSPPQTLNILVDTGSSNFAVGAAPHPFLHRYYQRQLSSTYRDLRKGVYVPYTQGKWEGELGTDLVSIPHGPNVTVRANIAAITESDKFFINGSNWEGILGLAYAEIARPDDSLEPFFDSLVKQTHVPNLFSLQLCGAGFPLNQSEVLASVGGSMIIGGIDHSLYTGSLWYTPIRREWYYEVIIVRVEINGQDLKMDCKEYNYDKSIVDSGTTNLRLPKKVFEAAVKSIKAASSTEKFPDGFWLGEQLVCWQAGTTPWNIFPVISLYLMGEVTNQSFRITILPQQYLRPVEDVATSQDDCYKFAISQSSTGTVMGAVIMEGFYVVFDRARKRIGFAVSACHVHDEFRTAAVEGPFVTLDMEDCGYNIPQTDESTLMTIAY

NC1=NC(c2ccncc2)(c2cccc(-c3cccnc3F)c2)c2ncccc21 (stereo not drawn) [Example 21, 7-[3-(2-Fluoropyridin-3-yl)phenyl]-7-pyridin-4-yl-7H-pyrrolo[3,4-b]pyridin-5-amine]
Ki: 93 nM

NC1=NC(c2ccncc2)(c2cccc(-c3cncnc3)c2)c2cnccc21 (stereo not drawn) [Example 16, 3-Pyridin-4-yl-3-(3-pyrimidin-5-ylphenyl)-3H-pyrrolo[3,4-c]pyridin-1-amine]
Ki: 91 nM

COc1ccc(C2(c3cccc(-c4cccnc4)c3)N=C(N)c3ncccc32)cc1 (stereo not drawn) [Example 8, 5-(4-Methoxyphenyl)-5-(3-pyridin-3-ylphenyl)-5H-pyrrolo[3,4-b]pyridin-7-amine]
Ki: 339 nM

NC1=NC(c2ccncc2)(c2cccc(-c3cccnc3F)c2)c2cccnc21 (stereo not drawn) [Example 9, 5-[3-(2-Fluoropyridin-3-yl)phenyl]-5-pyridin-4-yl-5H-pyrrolo[3,4-b]pyridin-7-amine]
Ki: 295 nM

COc1ccc(C2(c3cccc(-c4cncnc4)c3)N=C(N)c3ncccc32)cc1 (stereo not drawn) [Example 5, 5-(4-Methoxyphenyl)-5-(3-pyrimidin-5-ylphenyl)-5H-pyrrolo[3,4-b]pyridin-7-amine]
Ki: 282 nM

COc1ccc(C2(c3cccc(-c4cccnc4F)c3)N=C(N)c3ncccc32)cc1 (stereo not drawn) [Example 6, 5-[3-(2-Fluoropyridin-3-yl)phenyl]-5-(4-methoxyphenyl)-5H-pyrrolo[3,4-b]pyridin-7-amine]
Ki: 275 nM

NC1=NC(c2ccncc2)(c2cccc(-c3cccnc3F)c2)c2cnccc21 (stereo not drawn) [Example 17, 3-[3-(2-Fluoropyridin-3-yl)phenyl]-3-pyridin-4-yl-3H-pyrrolo[3,4-c]pyridin-1-amine]
Ki: 62 nM

NC1=NC(c2ccncc2)(c2cccc(-c3cncnc3)c2)c2cccnc21 (stereo not drawn) [Example 10, 5-Pyridin-4-yl-5-(3-pyrimidin-5-ylphenyl)-5H-pyrrolo[3,4-b]pyridin-7-amine]
Ki: 324 nM

COc1cccc(-c2cccc(C3(c4ccncc4)N=C(N)c4ncccc43)c2)c1F (stereo not drawn) [Example 12, 5-(2′-Fluoro-3′-methoxybiphenyl-3-yl)-5-pyridin-4-yl-5H-pyrrolo[3,4-b]pyridin-7-amine 0.5 acetate]
Ki: 398 nM

COc1ccc(C2(c3cccc(-c4cncc(OC)c4)c3)N=C(N)c3ncccc32)cc1 (stereo not drawn) [Example 7, 5-(4-Methoxyphenyl)-5-[3-(5-methoxypyridin-3-yl)phenyl]-5H-pyrrolo[3,4-b]pyridin-7-amine]
Ki: 178 nM

COc1ccc(F)c(-c2cccc(C3(c4ccncc4)N=C(N)c4ncccc43)c2)c1 (stereo not drawn) [Example 11, 5-(2′-Fluoro-5-methoxybiphenyl-3-yl)-5-pyridin-4-yl-5H-pyrrolo[3,4-b]pyridin-7-amine 0.25 acetate]
Ki: 219 nM

NC1=NC(c2ccncc2)(c2cccc(-c3cncnc3)c2)c2ncccc21 (stereo not drawn) [Example 22, 7-Pyridin-4-yl-7-(3-pyrimidin-5-ylphenyl)-7H-pyrrolo[3,4-b]pyridin-5-amine]
Ki: 170 nM
